Reference: patent US20250163051A1, “PYRIMIDO AROMATIC RING COMPOUND AND USE THEREOF IN DRUG” (SUNSHINE LAKE PHARMA CO., LTD., priority 2022, published 2025)

How the values were obtained:
hTLR7 = biological target: T1, hTLR7 (Homo sapiens, UniProt Q9NYK1); experiment: Agonistic activity on human TLR7 in HEK-Blue hTLR7 cells (QUANTI-Blue); type: cell-based; conditions: 24 h incubation, OD650, read-out: hTLR 7 EC50
T1 construct: expressed in transfected cells; host or cells: HEK-Blue hTLR7 cells
T1 sequence (Q9NYK1 27-1049): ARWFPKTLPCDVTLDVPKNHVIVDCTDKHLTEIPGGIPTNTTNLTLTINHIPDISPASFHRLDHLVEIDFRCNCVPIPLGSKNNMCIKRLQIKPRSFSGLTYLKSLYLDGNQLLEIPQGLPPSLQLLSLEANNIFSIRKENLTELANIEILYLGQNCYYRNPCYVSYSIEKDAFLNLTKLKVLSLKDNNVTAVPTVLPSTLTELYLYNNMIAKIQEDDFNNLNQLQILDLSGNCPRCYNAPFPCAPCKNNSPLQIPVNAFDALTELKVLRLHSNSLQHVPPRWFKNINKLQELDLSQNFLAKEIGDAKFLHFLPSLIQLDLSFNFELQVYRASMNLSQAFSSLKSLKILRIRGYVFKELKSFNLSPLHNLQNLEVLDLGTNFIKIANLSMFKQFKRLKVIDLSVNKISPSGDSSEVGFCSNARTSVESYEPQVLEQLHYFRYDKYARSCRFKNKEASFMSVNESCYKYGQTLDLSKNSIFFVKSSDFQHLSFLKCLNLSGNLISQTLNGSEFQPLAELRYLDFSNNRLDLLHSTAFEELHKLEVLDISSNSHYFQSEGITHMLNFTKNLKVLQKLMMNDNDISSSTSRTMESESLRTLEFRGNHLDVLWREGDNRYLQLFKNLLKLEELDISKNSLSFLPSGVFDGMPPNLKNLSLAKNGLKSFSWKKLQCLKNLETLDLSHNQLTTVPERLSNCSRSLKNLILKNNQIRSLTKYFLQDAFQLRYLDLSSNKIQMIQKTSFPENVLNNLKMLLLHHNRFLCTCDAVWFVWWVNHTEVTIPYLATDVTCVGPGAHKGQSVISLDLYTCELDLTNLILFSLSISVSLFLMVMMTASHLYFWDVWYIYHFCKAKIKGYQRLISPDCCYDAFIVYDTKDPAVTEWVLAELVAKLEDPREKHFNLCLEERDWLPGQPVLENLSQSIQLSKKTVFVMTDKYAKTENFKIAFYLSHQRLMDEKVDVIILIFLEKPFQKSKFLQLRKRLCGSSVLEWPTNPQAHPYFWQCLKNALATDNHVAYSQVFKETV

hTLR8 = biological target: T2, hTLR8 (Homo sapiens, UniProt Q9NR97); experiment: Agonistic activity on human TLR8 in HEK-Blue hTLR8 cells (QUANTI-Blue); type: cell-based; conditions: 24 h incubation, OD650, read-out: hTLR 8 EC50
T2 construct: expressed in transfected cells; host or cells: HEK-Blue hTLR8 cells
T2 sequence (Q9NR97 27-1041): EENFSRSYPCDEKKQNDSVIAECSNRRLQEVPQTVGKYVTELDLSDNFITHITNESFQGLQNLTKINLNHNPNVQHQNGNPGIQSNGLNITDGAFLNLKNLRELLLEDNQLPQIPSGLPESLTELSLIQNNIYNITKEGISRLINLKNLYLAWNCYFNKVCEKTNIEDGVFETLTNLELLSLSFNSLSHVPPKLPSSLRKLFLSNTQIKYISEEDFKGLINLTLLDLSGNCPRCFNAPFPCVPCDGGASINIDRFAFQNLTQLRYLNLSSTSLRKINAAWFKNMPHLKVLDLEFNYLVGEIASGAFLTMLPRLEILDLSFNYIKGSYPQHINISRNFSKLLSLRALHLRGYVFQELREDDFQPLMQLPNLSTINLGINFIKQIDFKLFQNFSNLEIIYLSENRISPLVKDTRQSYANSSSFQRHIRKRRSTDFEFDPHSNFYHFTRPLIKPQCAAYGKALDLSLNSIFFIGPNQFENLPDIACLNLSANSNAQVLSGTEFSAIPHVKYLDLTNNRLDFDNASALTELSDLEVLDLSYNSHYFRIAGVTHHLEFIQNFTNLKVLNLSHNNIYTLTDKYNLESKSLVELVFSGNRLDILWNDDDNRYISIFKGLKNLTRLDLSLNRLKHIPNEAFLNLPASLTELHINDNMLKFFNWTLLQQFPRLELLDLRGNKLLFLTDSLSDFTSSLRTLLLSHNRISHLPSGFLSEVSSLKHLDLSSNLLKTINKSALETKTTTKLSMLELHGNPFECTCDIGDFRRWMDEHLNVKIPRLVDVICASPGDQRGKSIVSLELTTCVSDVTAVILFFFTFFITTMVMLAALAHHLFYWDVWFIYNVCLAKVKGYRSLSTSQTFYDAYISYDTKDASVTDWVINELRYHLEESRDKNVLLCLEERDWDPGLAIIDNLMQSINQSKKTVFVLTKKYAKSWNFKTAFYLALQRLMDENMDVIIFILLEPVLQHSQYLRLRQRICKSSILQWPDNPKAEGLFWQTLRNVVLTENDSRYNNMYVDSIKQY
Experimental: (§1) Purpose: HEK-Blue™ hTLR7 and HEK-Blue™ hTLR8 cells were used to detect the agonist and cytotoxic activities of compounds against hTLR7 and hTLR8.
(§2) The experimental steps were as shown below: • 1) Preparation of compound: The compound was prepared into a 20 mM stock solution with DMSO, and then the stock solution was diluted 3-fold in a gradient and added to a 96-well plate, for a total of 10 concentrations, with duplicate wells for each concentration. For negative control wells, 0.5 μL DMSO was added to each well. The final DMSO concentration was 0.5%. • 2) HEK-Blue™ hTLR7 or HEK-Blue™ hTLR8 cells were suspended in culture medium and then seeded into 96-well plates containing compounds at a cell count of 50,000 per well. The compounds and cells were incubated for 24 h at 37° C., 5% Co2. • 3) QUANTI-Blue was used for the detection solution: to a mixture of 1 mL of QB reagent and 1 mL of QB buffer was added 98 mL of sterile water, the mixture was mixed and dissolved, and then placed at room temperature for 10 min. • 4) Activity test of the compound: 20 μL of the culture supernatant in step 2) was added to each well of a 96-well plate containing 180 μL of QUANTI-Blue detection solution. After incubation at 37° C. for 1 h, the absorbance at 650 nm (OD650) was detected using a multifunctional microplate reader Flextation III. • 5) Detection of cell activity: The chemiluminescent signal (RLU) was detected using the multifunctional microplate reader Flextation III according to the instructions of Celltiter-Glo. • 6) Data analysis
Activity of compounds: OD650 values were analyzed using GraphPad Prism software, and the compound dose-effect curves were fitted to calculate the EC50 values of the compounds.

[1] = Cell toxicity (Celltiter-Glo) in HEK-Blue hTLR8 cells; conditions: human
Experimental: as §1, §2
Detection of cell activity: The calculation formula for cell activity % is as follows.
The cell activity % values were analyzed using GraphPad Prism software, and the compound dose-effect curves were fitted to calculate the CC50 values of the compounds.
Cell activity %=RLU compound/RLU DMSO Control*100%

Structure (SMILES) | EC50 (hTLR7) [µM] | EC50 (hTLR8) [µM] | CC50 at 24 h [1] [µM]
C=CCCN(CCC=C)Cc1cn(C)c(=O)cc1-c1cnc2c(N[C@@](C)(CO)CCCC)nc(N)nc2c1 [Example 3] | > 100 | 1.46 | –
CCCCN(CCCC)Cc1cn(C)c(=O)cc1-c1cnc2c(N[C@@](C)(CO)CCCC)nc(N)nc2c1 [Example 4] | > 100 | 1.07 | –
CCCC[C@](C)(CO)Nc1nc(N)nc2cc(-c3cc(=S)[nH]cc3CN(C)CCOC)ccc12 [Example 65, (R)-4-(2-Amino-4-((1-hydroxy-2-methylhexan-2-yl)amino)quinazolin-7-yl)-5-(((2-methoxyethyl)(methyl)amino)methyl)pyridine-2(1H)-thione] | > 100 | 0.212 | > 100
C=CCCN(C)Cc1cn(C)c(=O)cc1-c1ccc2c(N[C@](C)(CCCC)CNC(=O)c3cnn(C)c3)nc(N)nc2c1 [Example 46] | > 100 | 0.569 | > 100
CCCCNCc1cn(C)c(=O)cc1-c1ccc2c(N[C@@](C)(CO)CCCC)nc(N)nc2c1 [Example 62, (R)-4-(2-Amino-4-((1-hydroxy-2-methylhexan-2-yl)amino)quinazolin-7-yl)-5-((butylamino)methyl)-1-methylpyridin-2(1H)-one] | > 100 | 0.198 | > 100
CCCCN(CCCC)Cc1c[nH]c(=O)cc1-c1ccc2c(N[C@@](C)(CO)CCCC)nc(N)nc2c1 [Example 32] | 47.2 | 0.399 | –
C=CCCN(CCC=C)Cc1c[nH]c(=O)cc1-c1ccc2c(N[C@@](C)(CO)CCCC)nc(N)nc2c1 [Example 31] | 56.7 | 0.209 | –
CCCC[C@](C)(CO)Nc1nc(N)nc2cc(-c3cc(=O)[nH]cc3CN3CCCCC3)ccc12 [Example 17] | > 100 | 0.22 | > 100
CCCC[C@](C)(CO)Nc1nc(N)nc2cc(-c3cc(=O)n(C)cc3CN(C)CCc3ccccc3)cnc12 [Example 1, (R)-4-(2-Amino-4-((1-hydroxy-2-methylhexan-2-yl)amino)pyrido[3,2-d]pyrimidin-7-yl)-1-methyl-5-((methyl(phenethyl)amino)methyl)pyridin-2(1H)-one] | 73 | 1.82 | –
CCCC[C@H](CO)Nc1nc(N)nc2cc(-c3cc(=O)[nH]cc3CN(C)CCCC)cnc12 [Example 43, (R)-4-(2-Amino-4-((1-hydroxyhexan-2-yl)amino)pyrido[3,2-d]pyrimidin-7-yl)-5-((butyl(methyl)amino)methyl)pyridin-2(1H)-one] | – | – | > 100
CCCC[C@](C)(CO)Nc1nc(N)nc2cc(-c3cc(=O)[nH]cc3CN3CCNCC3)cnc12 [Example 15] | – | – | > 100
CCCC[C@](C)(CO)Nc1nc(N)nc2cc(-c3cc(=O)[nH]cc3CN(C)CCc3ccccc3)ccc12 [Example 29, (R)-4-(2-Amino-4-((1-hydroxy-2-methylhexan-2-yl)amino)quinazolin-7-yl)-5-((methyl(phenethyl)amino)methyl)pyridin-2(1H)-one] | 23.2 | 0.267 | –

Further lines, with some results ahead:

EC50 (hTLR7) [µM] | EC50 (hTLR8) [µM] | Structure (SMILES) | CC50 at 24 h [1] [µM]
> 100 | 0.166 | C=CCCN(C)Cc1c[nH]c(=O)cc1-c1cnc2c(N[C@](C)(CCCC)CNC(=O)c3cnn(C)c3)nc(N)nc2c1 [Example 44, (R)—N-(2-((2-Amino-7-(5-((but-3-en-1-yl(methyl)amino)methyl)-2-oxo-1,2-dihydropyridin-4-yl)pyrido[3,2-d]pyrimidin-4-yl)amino)-2-methylhexyl)-1-methyl-1H-pyrazole-4-carboxamide] | > 100
> 100 | 0.292 | CCCC[C@](C)(CO)Nc1nc(N)nc2cc(-c3cc(=O)[nH]cc3CN(C)CCO)ccc12 [Example 60, (R)-4-(2-Amino-4-((1-hydroxy-2-methylhexan-2-yl)amino)quinazolin-7-yl)-5-(((2-hydroxyethyl)(methyl)amino)methyl)pyridin-2(1H)-one] | > 100
> 100 | 0.132 | C=CCCN(CC)Cc1c[nH]c(=O)cc1-c1cnc2c(N[C@@](C)(CO)CCCC)nc(N)nc2c1 [Example 18] | > 100
> 100 | 0.183 | CCCC[C@](C)(CO)Nc1nc(N)nc2cc(-c3cc(=S)[nH]cc3CN(C)CCOC)cnc12 [Example 66, (R)-4-(2-Amino-4-((1-hydroxy-2-methylhexan-2-yl)amino)pyrido[3,2-d]pyrimidin-7-yl)-5-(((2-methoxyethyl)(methyl)amino)methyl)pyridine-2(1H)-thione] | > 100
> 100 | 0.315 | C=CCCN(C)Cc1cn(C)c(=O)cc1-c1cnc2c(N[C@@](C)(CO)CCCC)nc(N)nc2c1 [Example 7] | > 100
– | 0.68 | CCCCN(C)Cc1c[nH]c(=O)cc1-c1cnc2c(N[C@](C)(CCCC)COC)nc(N)nc2c1 [Example 53, (R)-4-(2-Amino-4-((1-methoxy-2-methylhexan-2-yl)amino)pyrido[3,2-d]pyrimidin-7-yl)-5-((butyl(methyl)amino)methyl)pyridin-2(1H)-one] | –
– | 1.65 | CCCC[C@](C)(CO)Nc1nc(N)nc2cc(-c3cc(=O)[nH]cc3CN(C)CCc3ccccc3)cnc12 [Example 11] | –
50.8 | 0.019 | CCCC[C@](C)(CO)Nc1nc(N)nc2cc(-c3cc(=O)[nH]cc3CN(C)CCC3CC3)cnc12 [Example 12] | –
> 100 | 3.9 | C#CCCN(C)Cc1cn(C)c(=O)cc1-c1cnc2c(N[C@@](C)(CO)CCCC)nc(N)nc2c1 [Example 6] | –
65.8 | 0.104 | CCCC[C@](C)(CO)Nc1nc(N)nc2cc(-c3cc(=O)[nH]cc3CN3CCCCC3)cnc12 [Example 16] | –
> 100 | 0.1 | CCCC[C@](C)(CO)Nc1nc(N)nc2cc(-c3cc(=O)n(C)cc3CN(C)CCC3CC3)cnc12 [Example 2] | –
12 | 0.023 | CCCCN(C)Cc1c[nH]c(=O)cc1-c1cnc2c(N[C@@](C)(CO)CCCC)nc(N)nc2c1 [Example 69, 4-(2-Amino-4-((1-hydroxy-2-methylhexan-2-yl)amino)pyrido[3,2-d]pyrimidin-7-yl)-5-((butyl(methyl)amino)methyl)pyridin-2(1H)-one] | –
54.6 | 0.845 | CCCC[C@](C)(CO)Nc1nc(N)nc2cc(-c3cc(=O)[nH]cc3CN3CCC(F)(F)CC3)cnc12 [Example 26] | –
> 100 | 0.397 | C=CCCN(C)Cc1cn(C2CCN(C)CC2)c(=O)cc1-c1cnc2c(N[C@@](C)(CO)CCCC)nc(N)nc2c1 [Example 37, (R)-4-(2-Amino-4-((1-hydroxy-2-methylhexan-2-yl)amino)pyrido[3,2-d]pyrimidin-7-yl)-5-((but-3-en-1-yl(methyl)amino)methyl)-1-(1-methylpiperidin-4-yl)pyridin-2(1H)-one] | –
